Laboratory results: US5084462A, “4-quinoline carboxylic acid derivatives useful as immunosuppressive agents” (The Du Pont Merck Pharmaceutical Company, priority 1990, dated 1992)
pIC50: −log10 of the molar value. Like-named read-outs stand apart in the source and are kept apart here.

Columns and labels:
[1] = test system: contact sensitivity response to 2,4-dinitrofluorobenzene (DNFB); test: Contact sensitivity response to 2,4-dinitrofluorobenzene (DNFB) in mice; format: in vivo, Balb/c female mice; settings: for inhibition in vivo at 1 mg/kg: 1.0 mg/kg oral; for inhibition in vivo at 0.4 mg/kg: read-out: % Suppression, Table 2, ear swelling, 0.4 mg/kg oral; for inhibition in vivo at 2 mg/kg: read-out: % Suppression, Table 2, ear swelling, 2.0 mg/kg oral
Procedure: This is an antigen-specific T-cell mediated inflammatory response that represents delayed-type hypersensitivity reactions seen in both humans and other mammals.
Balb/c female mice (.perspectiveto.20g, Charles River) were sensitized on the shaved abdomen with 25 μl of 0.5% 2,4-dinitrofluorobenzene ([…], Eastman Kodak Co.) in a vehicle of 4:1 acetone:olive oil on days 0 and 1. Mice were ear challenged with 20 μl of 0.2% DNFB in a vehicle of 4:1 acetone:olive oil on day 5. A constant area of the ears was measured immediately before challenge and 24 hours later with an engineer's micrometer. Ear swelling was expressed as the difference in ear thickness before and after challenge in units of 10^-4 inches±SEM. Percent suppression was calculated as: [formula] […] Negative controls were not sensitized on days 0 and 1 but were ear challenged on day 5. Ten mice were used per group.

[2] = test system: human mixed lymphocyte reaction; test: Human mixed lymphocyte reaction (3H-thymidine incorporation); format: cell-based; settings: Table 4, human PBMC of two donors, 6 days
Excerpt: Contact sensitivity to DNFB has teen extensively studied and characterized in the mouse to determine the regulatory mechanisms involved in cell mediated immune responses (Claman, et al., Immunol Rev 50:105, 1980). This is an antigen-specific T-cell mediated inflammatory response that represents delayed-type hypersensitivity reactions seen in both humans and other mammals. The primary use of the human mixed lymphocyte reaction is for the determination of transplantation compatibility between the donor (graft) and the recipient (Park and Good, p. 71. In Yunis, et al., Tissue typing and organ transplantation. 1973 Academic Press Inc., N.Y.).
Blood was obtained by venipuncture from two nonrelated human donors. Peripheral blood mononuclear cells (PBMC) were isolated from these samples by using the Leuco Prep procedure (Becton-Dickinson). PBMC were washed twice in phosphate buffered saline (without calcium and magnesium) and the separate cell isolations were adjusted to the appropriate concentrations in media (RPMI 1640) supplemented with 10% human AB serum and […] gentamicin. Cells from donor A (2×10^5) were incubated with cells from donor B (2×10^5) in 96 well round bottom microliter plates at 37° C., 5% CO2 for 6 days. Eighteen hours prior to harvesting cells from the plates, all wells were pulsed with 1 μCi of ^3 H-thymidine. Cells from the plates were harvested on day 6 and ^3 H-thymidine incorporation was determined using a scintillation counter.

[3] = test system: adjuvant-induced arthritis; test: Adjuvant-induced arthritis in rats; format: in vivo, Male Lewis rats; settings: for ED50: Rattus norvegicus, 432 h, adjuvant-induced arthritis; for Non-Injected Hind-Paw Volume / % Suppression: day 18; for % Suppression: Table 5, non-injected hind paw
Procedure: Rat adjuvant-induced arthritis represents a systemic inflammatory disease with bone and cartilage changes similar to that observed in rheumatoid arthritis, but in an accelerated time span (Pearson, Arth Rheum 7:80, 1964).
Male Lewis rats (Charles River) weighing 160-210 grams were injected subcutaneously with 0.1 ml of Freund's Complete Adjuvant containing 5 mg of M. butyricum/ml of paraffin oil (Difco Laboratories) into the plantar region of the right hind paw. Paraffin oil was injected for non-arthritic controls. Ten rats were used per group. Compounds were prepared in 0.25% Methocel® (Dow Chemical Co) with one drop of Tween® 80 per 10 ml of Methocel®. Animals were dosed every day beginning on the day of paw injection until day 18. The weight of each animal was recorded every other day beginning on the day of the paw injections. On day 18 the animals were weighed, and the non-injected hind paw volume was measured using a Ugo Basile Volume Differential Plethysmometer.

[4] = Mus musculus, po, 24 h, read-out: % Suppression, Table 2, ear swelling, 10.0 mg/kg oral
[5] = Mus musculus, po, 24 h, read-out: % Suppression, Table 2, ear swelling, 20.0 mg/kg oral
[6] = Table 5, 10 mg/kg daily to day 18
[7] = Mus musculus, po, 24 h, Table 3, ear swelling, 20.0 mg/kg oral, read-out: % Suppression

Structure (SMILES): C[C@@H]1C[C@H]2[C@@H]3CCC4=CC(=O)C=C[C@]4(C)[C@@]3(F)[C@@H](O)C[C@]2(C)[C@@]1(O)C(=O)CO [Dexamethasone, reference compound]
- inhibition in vivo at 0.2 mg/kg ([1]; Mus musculus, po, 24 h, Table 2, ear swelling, 0.2 mg/kg oral, read-out: % Suppression): 28.8%
- inhibition in vivo at 1 mg/kg ([1]; Mus musculus, po, 24 h, Table 2, ear swelling, read-out: % Suppression): 44.3%
- inhibition in vivo at 5 mg/kg ([1]; Mus musculus, po, 24 h, Table 2, ear swelling, 5.0 mg/kg oral, read-out: % Suppression): 68.6%
- inhibition in vivo at 10 mg/kg ([1]; Mus musculus, po, 24 h, Table 2, ear swelling, 10.0 mg/kg oral, read-out: % Suppression): 79.9%
- inhibition in vivo at 1 mg/kg ([1]; Mus musculus, po, 24 h, Table 3, ear swelling, read-out: % Suppression): 43.8%
- ED50 ([1]; Mus musculus, Table 2, suppression of ear swelling, oral, days -2 through 6, read-out: ED50): 1.5 mg/kg
- Ear Swelling (units ± SEM), increase in ear thickness from day 5 to day 6 ([1]; Table 2, 0.2 mg/kg oral): 52.95 ± 3.39 10^-4 inches
- Ear Swelling (units ± SEM), increase in ear thickness from day 5 to day 6 ([1]; Table 2, 1.0 mg/kg oral): 41.60 ± 2.46 10^-4 inches
- Ear Swelling (units ± SEM), increase in ear thickness from day 5 to day 6 ([1]; Table 2, 5.0 mg/kg oral): 23.79 ± 2.71 10^-4 inches
- Ear Swelling (units ± SEM), increase in ear thickness from day 5 to day 6 ([1]; Table 2, 10.0 mg/kg oral): 15.50 ± 2.10 10^-4 inches
- Ear Swelling (units ± SEM), increase in ear thickness from day 5 to day 6 ([1]; Table 3, 1.0 mg/kg oral): 42.20 ± 2.61 10^-4 inches

Structure (SMILES): Cc1c(-c2ccc(-c3ccccc3)cc2)nc2cccc(Cl)c2c1C(=O)[O-].[Na+] [Example 1, Sodium 2-(1,1'-Biphenyl-4-yl)-5-chloro-3-methyl-quinoline-4-carboxylate]
- ED50 ([1]; Mus musculus, po): 3.5 mg/kg
- inhibition in vivo at 0.4 mg/kg ([1]; Mus musculus, po, 24 h): 11%
- inhibition in vivo at 2 mg/kg ([1]; Mus musculus, po, 24 h): 23.4%
- inhibition in vivo at 10 mg/kg [1, 4]: 92.7%
- inhibition in vivo at 20 mg/kg [1, 5]: 93.9%
- Ear Swelling (units ± SEM), increase in ear thickness from day 5 to day 6 ([1]; Table 2, 0.4 mg/kg oral): 66.05 ± 4.32 10^-4 inches
- Ear Swelling (units ± SEM), increase in ear thickness from day 5 to day 6 ([1]; Table 2, 2.0 mg/kg oral): 56.94 ± 4.80 10^-4 inches
- Ear Swelling (units ± SEM), increase in ear thickness from day 5 to day 6 ([1]; Table 2, 10.0 mg/kg oral): 6.10 ± 0.75 10^-4 inches
- Ear Swelling (units ± SEM), increase in ear thickness from day 5 to day 6 ([1]; Table 2, 20.0 mg/kg oral): 5.20 ± 1.17 10^-4 inches
- pIC50 [2]: 8.02
- ED50 ([3]; Table 5 footnote): 21 mg/kg
- Weight Gain [3, 6]: -14.0 ± 4.2 g
- Non-Injected Hind-Paw Volume ([3]; Table 5, 10 mg/kg daily): 1.87 ± 0.08 mL
- Weight Gain ([3]; Table 5, 17.5 mg/kg daily to day 18): 2.8 ± 5.3 g
- Non-Injected Hind-Paw Volume ([3]; Table 5, 17.5 mg/kg daily): 1.72 ± 0.08 mL
- Weight Gain ([3]; Table 5, 25.0 mg/kg daily to day 18): 20.6 ± 6.3 g
- Non-Injected Hind-Paw Volume ([3]; Table 5, 25.0 mg/kg daily): 1.34 ± 0.10 mL
- % Suppression ([3]; 10 mg/kg daily): 1.4%
- % Suppression ([3]; 17.5 mg/kg daily): 20.8%
- % Suppression ([3]; 25.0 mg/kg daily): 70.6%

Structure (SMILES): Cc1c(-c2ccc(-c3ccccc3F)cc2)nc2ccc(F)cc2c1C(=O)[O-].[Na+] [Example 2, Sodium 2-(2'-Fluoro-1,1'-biphenyl-4-yl)-6-fluoro-3-methylquinoline-4-carboxylate]
- ED50 ([1]; Mus musculus, po): 0.95 mg/kg
- inhibition in vivo at 0.4 mg/kg ([1]; Mus musculus, po, 24 h): 30.2%
- inhibition in vivo at 2 mg/kg ([1]; Mus musculus, po, 24 h): 66.1%
- inhibition in vivo at 10 mg/kg [1, 4]: 92.3%
- inhibition in vivo at 20 mg/kg [1, 5]: 94.5%
- Ear Swelling (units ± SEM), increase in ear thickness from day 5 to day 6 ([1]; Table 2, 0.4 mg/kg oral): 51.95 ± 2.33 10^-4 inches
- Ear Swelling (units ± SEM), increase in ear thickness from day 5 to day 6 ([1]; Table 2, 2.0 mg/kg oral): 25.61 ± 3.39 10^-4 inches
- Ear Swelling (units ± SEM), increase in ear thickness from day 5 to day 6 ([1]; Table 2, 10.0 mg/kg oral): 6.40 ± 1.09 10^-4 inches
- Ear Swelling (units ± SEM), increase in ear thickness from day 5 to day 6 ([1]; Table 2, 20.0 mg/kg oral): 4.75 ± 1.20 10^-4 inches
- pIC50 [2]: 7.60
- ED50 ([3]; Table 5 footnote): < 10 mg/kg
- Weight Gain ([3]; Table 5, 2.0 mg/kg daily to day 18): -1.5 ± 3.6 g
- Non-Injected Hind-Paw Volume ([3]; Table 5, 2.0 mg/kg daily): 1.62 ± 0.05 mL
- Weight Gain [3, 6]: 65.6 ± 5.2 g
- Non-Injected Hind-Paw Volume ([3]; Table 5, 10 mg/kg daily): 1.15 ± 0.02 mL
- % Suppression ([3]; 2.0 mg/kg daily): 34.5%
- % Suppression ([3]; 10 mg/kg daily): 96.2%
- Toxicity ([3]; Table 5 footnote, 25.0 mg/kg daily): Toxic by day 7

Structure (SMILES): Cc1c(-c2ccc(Oc3ccccc3)cc2)nc2ccc(F)cc2c1C(=O)O [Example 3]
- inhibition in vivo at 20 mg/kg [1, 7]: 83.5%
- Ear Swelling (units ± SEM), increase in ear thickness from day 5 to day 6 ([1]; Table 3, 20.0 mg/kg oral): 14.25 ± 1.49 10^-4 inches

Structure (SMILES): Cc1c(-c2ccc(-c3ccc(Br)cc3)cc2)nc2ccc(F)cc2c1C(=O)O [Example 4]
- inhibition in vivo at 20 mg/kg [1, 7]: 87%
- Ear Swelling (units ± SEM), increase in ear thickness from day 5 to day 6 ([1]; Table 3, 20.0 mg/kg oral): 11.80 ± 1.03 10^-4 inches

Structure (SMILES): Cc1ccc2nc(-c3ccc(-c4ccccc4)cc3)c(C)c(C(=O)O)c2c1 [Example 5]
- inhibition in vivo at 20 mg/kg [1, 7]: 53.4%
- Ear Swelling (units ± SEM), increase in ear thickness from day 5 to day 6 ([1]; Table 3, 20.0 mg/kg oral): 35.47 ± 2.31 10^-4 inches

Structure (SMILES): Cc1c(-c2ccc(SC(C)C)cc2)nc2ccc(F)cc2c1C(=O)O [Example 6]
- inhibition in vivo at 20 mg/kg [1, 7]: 21.1%
- Ear Swelling (units ± SEM), increase in ear thickness from day 5 to day 6 ([1]; Table 3, 20.0 mg/kg oral): 58.20 ± 4.63 10^-4 inches
